Source: PMC12363342, “Investigating the N-terminal linker histone H1 subtypes as substrates for JmjC lysine demethylases” (RSC Chemical Biology, 2025)
Square brackets hold non-standard residues; d marks the D form. Ends that are not written are not given here. Lys(Me3) = C[N+](C)(C)CCCC[C@H](N)C(=O)O; Lys(Me2) = CN(C)CCCC[C@H](N)C(=O)O

What was measured:
[1] = tested on: KDM5D; test: LC-MS demethylation activity assay, KDM5D; format: biochemical, human; conditions: 2 μM KDM, 10 μM H1/H3 peptide, 10 μM FAS, 100 μM LAA, 20 μM 2OG, 50 mM HEPES pH 7.5, 2 h, room temperature; for KDM5D demethylation activity, D: D (di-) initial methylation state
Method: (§1) The substrate specificity of JmjC KDMs for H1 was examined using liquid chromatography coupled to mass spectrometry (LC-MS) assays. The H1 peptides (10 μM) were incubated with the recombinant KDM (2 μM) in HEPES buffer at pH 7.5 at room temperature for 2 h, in the presence of ferrous(II) ammonium sulfate (FAS, 10 μM), sodium ascorbate (LAA, 100 μM) and 2OG (20 μM), and then quenched with formic acid. N^ε-Methylated H3K9 and H3K36 peptides were used as positive controls (Fig. 3–5 and Fig. S2–S6).[26]
(§2) The catalytic domains of the JmjC KDMs used were recombinantly produced as reported in either Escherichia coli (KDM4AM1-L359,[38] KDM4DM1-L359,[39] KDM4EM1-R336,[30] KDM6BD1141–E1590[40] and KDM3CL2157-L2500) or Sf9 cells (KDM3AT515–S1317, KDM3B882–1761, and KDM5DM1-D775) as N-terminally His6-tagged proteins. […] To produce proteins, DNA sequences encoding for KDM3A, KDM3B and KDM5D were inserted into the pFB-LIC vector, containing a TEV-protease cleavable N-terminal 6x-histidine tag via ligation independent cloning (LIC). The resultant plasmids were transformed into baculovirus and Sf9 cells ([…]) which were infected with the virus stock. The cells were grown at 27 °C and 90 rpm for 70 h. Cells were then harvested and suspended in 100 mL of lysis buffer (50 mM HEPES-NaOH, pH 7.4, 500 mM NaCl, 20 mM imidazole, 0.5 mM Tris (2-carboxyethyl)phosphine (TCEP), 5% (v/v) glycerol). […] The supernatant was loaded onto a Ni-NTA gravity column, washed with 10 column volume of lysis buffer and eluted using the elution buffer (50 mM HEPES-NaOH, pH 7.4, 500 mM NaCl, 300 mM imidazole, 0.5 mM TCEP, 5% (v/v) glycerol). The eluted protein was further purified using S200 gel filtration column chromatography (50 mM HEPES-NaOH, pH 7.4, 150 mM NaCl, 0.5 mM TCEP and 5% glycerol). Protein purity was analysed by SDS-PAGE and further confirmed by mass spectrometry. Selected fractions were pooled, concentrated and stored at −80 °C.
(§3) All reagents were purchased from Sigma Aldrich and were of the highest grade available. Ferrous(II) ammonium sulfate (FAS) solutions were prepared freshly by dissolving FAS to 400 mM in 20 mM HCl with subsequent dilution to 1 mM using deionized water. Fresh 2OG (10 mM) and LAA (50 mM) solutions were prepared by dissolving the solids in deionised water. All enzyme reactions were performed in 384-well plates (Greiner Bio-One) with a final reaction volume of 50 μL. Substrate mixtures contained 50 mM HEPES pH 7.5, LAA (100 μM), FAS (10 μM), 2OG (20 μM) and an H1 isoform peptide (10 μM). Reactions were initiated by the addition of enzyme to a final concentration of 2.0 μM. After 2 h, the reactions were stopped by the addition of 5 μL of 10% (v/v) LC-MS grade formic acid (Fisher Scientific) to a final concentration of 1% (v/v). Product analyses were performed by liquid chromatography-mass spectrometry (LC-MS) using an Agilent 1290 infinity II LC system equipped with an Agilent 1290 multisampler and an Agilent 1290 high speed pump and connected to an Agilent 6550 accurate mass iFunnel quadrupole time of flight (Q-TOF) mass spectrometer. 1 μL of the reaction mixture was injected onto a 1.8 μm × 2.1 × 50 mm ZORBAX RRHD Eclipse Plus C18 column (Agilent). Solvent A consisted of HPLC grade water containing 0.1% (v/v) formic acid and solvent B consisted of MeCN containing 0.1% (v/v) formic acid. Peptides were separated using a stepwise gradient (0 min – 95% solvent A, 1.0 min – 80% solvent A, 3.0 min – 45% solvent A, 4.0 min – 45% solvent A, 5.0 min – 0% solvent A, 6.0 min – 0% solvent A, 7.0 min – 95% solvent A). This was followed by a 3 min post-run with 95% solvent A to re-equilibrate the column. All flow rates were 0.2 mL min^−1. A blank injection of HPLC grade water was carried out between each sample injection.

[2] = tested on: KDM4A; test: LC-MS demethylation activity assay, KDM4A; format: biochemical, human; conditions: 10 μM FAS, 100 μM LAA, 20 μM 2OG, room temperature; for KDM4A demethylation activity, D: D (di-) initial methylation state
Method: as §1, §2, §3

[3] = molecular target: T1, KDM4D (Homo sapiens, UniProt Q6B0I6); test: LC-MS demethylation activity assay, KDM4D; format: biochemical; conditions: room temperature; for KDM4D demethylation activity, D: D (di-) initial methylation state
T1 construct: KDM4AM1-L359,[38]; KDM4DM1-L359,[39]; KDM4EM1-R336,[30]; His6 (N); made in house; host or cells: Escherichia coli
T1 sequence (Q6B0I6 1-359): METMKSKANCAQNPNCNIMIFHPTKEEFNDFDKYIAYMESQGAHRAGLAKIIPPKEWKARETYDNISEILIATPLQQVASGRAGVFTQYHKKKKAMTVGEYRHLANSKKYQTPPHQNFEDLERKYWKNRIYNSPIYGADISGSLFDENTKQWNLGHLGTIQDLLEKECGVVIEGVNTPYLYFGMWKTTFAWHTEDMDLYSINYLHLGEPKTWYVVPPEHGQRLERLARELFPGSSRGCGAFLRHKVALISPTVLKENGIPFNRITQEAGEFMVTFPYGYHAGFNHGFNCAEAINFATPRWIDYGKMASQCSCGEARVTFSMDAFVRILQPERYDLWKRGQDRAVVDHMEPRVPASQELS
Method: as §1, §2, §3

[4] = molecular target: T2, KDM4E (Homo sapiens, UniProt B2RXH2); test: LC-MS demethylation activity assay, KDM4E; format: biochemical; conditions: 10 μM FAS, 100 μM LAA, 20 μM 2OG, room temperature; for KDM4E demethylation activity, D: D (di-) initial methylation state
T2 construct: KDM4DM1-L359,[39]; KDM4EM1-R336,[30]; His6 (N); made in house; host or cells: Escherichia coli
T2 sequence (B2RXH2 1-336): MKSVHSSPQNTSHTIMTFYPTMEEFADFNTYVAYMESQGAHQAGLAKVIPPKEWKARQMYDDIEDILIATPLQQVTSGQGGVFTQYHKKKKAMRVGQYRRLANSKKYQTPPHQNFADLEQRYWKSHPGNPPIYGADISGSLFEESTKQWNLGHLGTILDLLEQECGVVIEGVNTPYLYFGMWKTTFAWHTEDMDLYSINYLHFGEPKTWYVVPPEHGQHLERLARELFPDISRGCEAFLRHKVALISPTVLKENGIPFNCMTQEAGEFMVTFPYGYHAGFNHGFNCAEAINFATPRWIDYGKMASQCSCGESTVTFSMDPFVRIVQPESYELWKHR
Method: as §1, §2, §3

[5] = tested on: KDM3C; test: LC-MS demethylation activity assay, KDM3C; format: biochemical, human; conditions: 2 μM KDM, 10 μM H1/H3 peptide, 10 μM FAS, 100 μM LAA, 20 μM 2OG, 50 mM HEPES pH 7.5, 2 h, room temperature; for KDM3C demethylation activity, D: D (di-) initial methylation state
Method: as §1, §2, §3

[6] = tested on: KDM3A; test: LC-MS demethylation activity assay, KDM3A; format: biochemical, human; conditions: 2 μM KDM, 10 μM H1/H3 peptide, 10 μM FAS, 100 μM LAA, 20 μM 2OG, 50 mM HEPES pH 7.5, 2 h, room temperature; for KDM3A demethylation activity, D: D (di-) initial methylation state
Method: as §1, §2, §3

[7] = tested on: KDM6B; test: LC-MS demethylation activity assay, KDM6B; format: biochemical, human; conditions: 2 μM KDM, 10 μM H1/H3 peptide, 10 μM FAS, 100 μM LAA, 20 μM 2OG, 50 mM HEPES pH 7.5, 2 h, room temperature; for KDM6B demethylation activity, D: D (di-) initial methylation state
Method: as §1, §2, §3

[8] = tested on: KDM3B; test: LC-MS demethylation activity assay, KDM3B; format: biochemical, human; conditions: 2 μM KDM, 10 μM H1/H3 peptide, 10 μM FAS, 100 μM LAA, 20 μM 2OG, 50 mM HEPES pH 7.5, 2 h, room temperature; for KDM3B demethylation activity, D: D (di-) initial methylation state
Method: as §1, §2, §3

[9] = 2 μM KDM, 10 μM H1/H3 peptide, 50 mM HEPES pH 7.5, 2 h
[10] = 2 μM KDM, 10 μM H1/H3 peptide, 10 μM FAS, 100 μM LAA, 20 μM 2OG, 50 mM HEPES pH 7.5, 2 h
[11] = M (mono-) initial methylation state
[12] = 2 μM KDM, 10 μM H1/H3 peptide, 50 mM HEPES pH 7.5, 2 h, M (mono-) initial methylation state
[13] = T (tri-) initial methylation state
[14] = 2 μM KDM, 10 μM H1/H3 peptide, 50 mM HEPES pH 7.5, 2 h, T (tri-) initial methylation state
[15] = 2 μM KDM4D, 10 μM peptide, standard conditions, 2 h

KKKATK[Lys(Me2)]AAGAGAAK [Peptide H1.5K26me2, 15-mer linker histone H1.5 residues 20-34 peptide, di-methylated K26]
KDM5D demethylation activity, D [1]: ● [red]
KDM4A demethylation activity, D [2, 9]: ● [red]
KDM4D demethylation activity, D [3, 10]: ● [black] (black dots indicate low-level demethylation (<10% conversion))
substrate conversion (demethylation) by KDM4E ([4]; 2 μM KDM4E, 10 μM peptide, HEPES pH 7.5, 2 h): > 40%
KDM4E demethylation activity, D [4, 9]: ● [green] (green dots indicate good demethylation (>50% conversion))
KDM3C demethylation activity, D [5]: ● [red]
KDM3A demethylation activity, D [6]: ● [red]
KDM6B demethylation activity, D [7]: ● [red]
KDM3B demethylation activity, D [8]: ● [red]

KKKATKmeKAAGAGAAK [Peptide H1.5K25me, 15-mer linker histone H1.5 residues 20-34 peptide, mono-methylated K25]
KDM5D demethylation activity, M [1, 11]: ● [red]
KDM4A demethylation activity, M [2, 12]: ● [red]
KDM4D demethylation activity, M ([3]; 2 μM KDM, 10 μM H1/H3 peptide, 10 μM FAS, 100 μM LAA, 20 μM 2OG, 50 mM HEPES pH 7.5, 2 h, M (mono-) initial methylation state): ● [red]
KDM4E demethylation activity, M [4, 12]: ● [red]
KDM3C demethylation activity, M [5, 11]: ● [red]
KDM3A demethylation activity, M [6, 11]: ● [red]
KDM6B demethylation activity, M [7, 11]: ● [red]
KDM3B demethylation activity, M [8, 11]: ● [red]

KKKAT[Lys(Me2)]KAAGAGAAK [Peptide H1.5K25me2, 15-mer linker histone H1.5 residues 20-34 peptide, di-methylated K25]
KDM5D demethylation activity, D [1]: ● [red]
KDM4A demethylation activity, D [2, 9]: ● [red]
KDM4D demethylation activity, D [3, 10]: ● [red]
KDM4E demethylation activity, D [4, 9]: ● [red]
KDM3C demethylation activity, D [5]: ● [red]
KDM3A demethylation activity, D [6]: ● [red]
KDM6B demethylation activity, D [7]: ● [red]
KDM3B demethylation activity, D [8]: ● [red]

KKKAT[Lys(Me3)]KAAGAGAAK [Peptide H1.5K25me3, 15-mer linker histone H1.5 residues 20-34 peptide, tri-methylated K25]
KDM5D demethylation activity, T [1, 13]: ● [red]
substrate conversion (demethylation) by KDM4A ([2]; 2 μM KDM4A, 10 μM peptide, HEPES pH 7.5, 2 h): < 10%
KDM4A demethylation activity, T [2, 14]: ● [yellow] (yellow dots indicate moderate demethylation (<50% conversion))
KDM4D demethylation activity, in words [3, 15]: No activity was observed
di-methylated product formed by KDM4D [3, 15]: < 5%
KDM4D demethylation activity, T ([3]; 2 μM KDM, 10 μM H1/H3 peptide, 10 μM FAS, 100 μM LAA, 20 μM 2OG, 50 mM HEPES pH 7.5, 2 h, T (tri-) initial methylation state): ● [red]
KDM4E demethylation activity, T [4, 14]: ● [red]
KDM3C demethylation activity, T [5, 13]: ● [red]
KDM3A demethylation activity, T [6, 13]: ● [red]
KDM6B demethylation activity, T [7, 13]: ● [red]
KDM3B demethylation activity, T [8, 13]: ● [red]
